We go through 38 compounds from patent US20230174523A1, “BENZENESULFONAMIDE DERIVATIVES AS TRAP1 MODULATORS AND USES THEREOF” (Amathus Therapeutics, Inc., priority 2020, published 2023).

The target of the assay is T1, TRAP1 enzyme (Homo sapiens, UniProt Q12931).
T1 sequence (Q12931 60-704): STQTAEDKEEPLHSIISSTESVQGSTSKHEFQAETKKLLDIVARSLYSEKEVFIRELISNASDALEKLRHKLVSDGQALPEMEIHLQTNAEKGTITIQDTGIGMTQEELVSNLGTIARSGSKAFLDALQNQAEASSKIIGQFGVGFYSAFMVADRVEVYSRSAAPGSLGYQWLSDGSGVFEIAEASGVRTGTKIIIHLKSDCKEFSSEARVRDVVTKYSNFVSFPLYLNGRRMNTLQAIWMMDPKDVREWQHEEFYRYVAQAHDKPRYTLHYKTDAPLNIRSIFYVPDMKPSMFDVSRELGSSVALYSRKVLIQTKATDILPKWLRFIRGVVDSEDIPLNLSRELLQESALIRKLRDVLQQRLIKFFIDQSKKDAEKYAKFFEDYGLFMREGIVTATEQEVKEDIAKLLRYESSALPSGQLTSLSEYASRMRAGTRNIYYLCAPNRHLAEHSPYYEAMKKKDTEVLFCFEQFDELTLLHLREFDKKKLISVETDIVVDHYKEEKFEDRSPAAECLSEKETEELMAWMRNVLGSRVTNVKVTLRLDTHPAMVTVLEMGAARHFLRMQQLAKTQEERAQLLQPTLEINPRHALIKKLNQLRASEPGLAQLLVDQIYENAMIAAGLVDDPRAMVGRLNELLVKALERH
The assay is described as follows: ADP Glo assay of TRAP1 ATPase activity. The class given is biochemical. Particulars: for EC50: TRAP1 ATPase activation, 150 nM Trap1, 20 μM ATP, geometric mean, read-out: ADP GLO DRC: GeoMean EC50; for Emax: read-out: ADP GLO DRC: Mean Emax. In short, it runs like this: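 150 nM TRAP1 preincubated with compound (0.79–100 μM) 30 min at 37° C in Pipes pH 7.5 buffer (0.05 mM MgCl2, 40 mM KCl), then 20 μM ATP added for 60 min at 37° C. ADP quantified by ADP-Glo luminescence against ATP/ADP standard curve. Emax and EC50 from sigmoidal fit.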
In general terms: ADP-Glo first removes unused ATP, then detects ADP through luciferase.

Bounds are passed on as bounds.

For orientation: EC50 means the midpoint of the concentration-response curve. By Emax is commonly meant the maximal effect, on the per cent scale that the assay sets. Turning to `O=C(Nc1ccc(F)c(S(=O)(=O)Nc2ccc(Cl)cc2)c1)c1cccc2c1OC(F)(F)O2` [Compound 737], the EC50 lay in the range of 10 to 20 µM and the Emax lay in the range of 123 to 159%.
On the same counts, the results for `COc1ccc(NC(=O)c2ccc3nsnc3c2)cc1S(=O)(=O)Nc1c(C)cccc1C` [Compound 1240] are 10 to 20 µM and 200 to 300%.
In the case of `CC(C)(C)OC(=O)c1ccccc1C(=O)Nc1ccc(F)c(S(=O)(=O)Nc2ccc(Cl)cc2)c1` [Compound 694], the EC50 fell in the range of 20 to 100 µM and the Emax fell in the range of 123 to 159%.
For `O=C(Nc1ccc(F)c(S(=O)(=O)Nc2ccc(Cl)cc2)c1)c1cccc(-n2cncn2)c1` [Compound 1220] the same measures were 20 to 100 µM and 123 to 159%.
On the same counts, the results for `COc1ccc(NC(=O)c2ncc(-c3ccccc3)o2)cc1S(=O)(=O)Nc1c(C)ccc2ncccc12` [Compound 1605] are below 10 µM and 160 to 199%.
Consider `Cn1c(=O)n(C)c2cc(C(=O)Nc3ccc(F)c(S(=O)(=O)Nc4ccc(Cl)cc4)c3)ccc21` [Compound 1261], for which the EC50 is 20 to 100 µM and the Emax was in the range of 123 to 159%.
For `COc1ccc(NC(=O)c2ncccc2C)cc1S(=O)(=O)Nc1c(C)cccc1C` [Compound 1167] the same measures were 10 to 20 µM and 123 to 159%.
For `COc1ccc(NC(=O)c2cccc(C#N)c2Cl)cc1S(=O)(=O)Nc1c(C)cccc1C` [Compound 1100] the same measures were 10 to 20 µM and 200 to 300%.
On the same counts, the results for `COc1ccc(NC(=O)c2cccc(-c3csc(C)n3)c2)cc1S(=O)(=O)Nc1c(C)cccc1C` [Compound 1290] are below 10 µM and 160 to 199%.
Consider `COc1ccc(NC(=O)c2cocn2)cc1S(=O)(=O)Nc1ccc(Cl)cc1` [Compound 1961], for which the EC50 was 20 to 100 µM and the Emax was in the range of 160 to 199%.
For `COc1ccc(NC(=O)c2cccc3ncccc23)cc1S(=O)(=O)Nc1c(C)cccc1C` [Compound 1219] the same measures were 20 to 100 µM and 160 to 199%.
For `O=C(Nc1ccc(F)c(S(=O)(=O)Nc2ccc(Cl)cc2)c1)c1nccnc1C(F)(F)F` [Compound 710] the same measures were 10 to 20 µM and 123 to 159%.
For `COc1ccc(NC(=O)c2ccc(-c3ccc(F)cc3)cc2F)cc1S(=O)(=O)Nc1c(C)cccc1C` [Compound 1142] the same measures were below 10 µM and 123 to 159%.
For the compound `COc1ccc(NC(=O)c2sc(-c3cccs3)nc2C)cc1S(=O)(=O)Nc1c(C)cccc1C` [Compound 1156], the EC50 is below 10 µM and the Emax was in the range of 123 to 159%.
For `CCOc1ncccc1C(=O)Nc1ccc(F)c(S(=O)(=O)Nc2ccc(Cl)cc2)c1` [Compound 704] the same measures were 10 to 20 µM and 200 to 300%.
For `CCc1ccc(NC(=O)c2cnn(-c3ccc(Cl)cc3)c2C)cc1S(=O)(=O)Nc1ccc(Cl)cc1` [Compound 1335], the concentration giving a half-maximal response (EC50) lay within 20 to 100 µM and the Emax was 123 to 159%.
For `COc1ccc(NC(=O)c2ccnn2-c2ccccc2)cc1S(=O)(=O)Nc1c(C)cccc1C` [Compound 1061] the same measures were 10 to 20 µM and 200 to 300%.
With `CCc1cc(C(=O)Nc2ccc(F)c(S(=O)(=O)Nc3ccc(Cl)cc3)c2)cc(C)n1` [Compound 1286], the EC50 fell in the range of 20 to 100 µM and the Emax lay within 123 to 159%.
For `Cc1cc(Cl)nc(Cl)c1C(=O)Nc1ccc(F)c(S(=O)(=O)Nc2ccc(Cl)cc2)c1` [Compound 691] the same measures were 20 to 100 µM and 123 to 159%.
Take `COc1ccc(NC(=O)c2cnn(-c3cccnc3)c2)cc1S(=O)(=O)Nc1c(C)cccc1C` [Compound 1106]: the concentration for a half-maximal effect (EC50) lay in the range of 10 to 20 µM and the Emax is 200 to 300%.
For the compound `COc1ccc(NC(=O)c2ccc3ocnc3c2)cc1S(=O)(=O)Nc1c(C)cccc1C` [Compound 1272], the EC50 fell in the range of 20 to 100 µM and the Emax is 123 to 159%.
On the same counts, the results for `COc1ccc(NC(=O)c2cc3ccccc3n2C)cc1S(=O)(=O)Nc1c(C)cccc1C` [Compound 1170] are below 10 µM and 123 to 159%.
On the same counts, the results for `CCc1noc(CC)c1C(=O)Nc1ccc(F)c(S(=O)(=O)Nc2ccc(Cl)cc2)c1` [Compound 830] are 20 to 100 µM and 160 to 199%.
For `C=C(C)c1cc(OC)c(S(=O)(=O)Nc2ccc(C(F)(F)F)cc2)cc1NC(=O)c1ncc(-c2ccccc2)o1` [Compound 1189] the same measures were 20 to 100 µM and above 300%.
For the compound `COc1ccc(NC(=O)c2ncccc2C(=O)c2ccccc2)cc1S(=O)(=O)Nc1c(C)cccc1C` [Compound 1275], the EC50 was in the range of 20 to 100 µM and the Emax lay in the range of 123 to 159%.
For `CCS(=O)(=O)c1ccc(OC)c(C(=O)Nc2ccc(OC)c(S(=O)(=O)Nc3c(C)cccc3C)c2)c1` [Compound 1254] the same measures were 20 to 100 µM and 160 to 199%.
Take `COc1ccc(NC(=O)c2ccc3cn(C)nc3c2)cc1S(=O)(=O)Nc1c(C)cccc1C` [Compound 1362]: the EC50 lay in the range of 10 to 20 µM and the Emax fell in the range of 200 to 300%.
Turning to `COc1ccc(NC(=O)c2cn(C)c3ncccc23)cc1S(=O)(=O)Nc1c(C)cccc1C` [Compound 1108], the EC50 was 10 to 20 µM and the maximum response (Emax) is above 300%.
`COc1ccc(NC(=O)c2ccc3c(c2)CCN3C)cc1S(=O)(=O)Nc1c(C)cccc1C` [Compound 1008]: the EC50 fell in the range of 20 to 100 µM and the Emax lay in the range of 123 to 159%.
On the same counts, the results for `O=C(Nc1cccc(S(=O)(=O)Nc2ccc(Cl)cc2)c1)c1ncc(-c2ccccc2)o1` [Compound 438] are 10 to 20 µM and 123 to 159%.
For `Cc1cc(C)n(Cc2cccc(C(=O)Nc3ccc(F)c(S(=O)(=O)Nc4ccc(Cl)cc4)c3)c2)n1` [Compound 807] the same measures were below 10 µM and 160 to 199%.
For `COc1ccc(NC(=O)c2ccc(S(=O)(=O)N(C)C)cc2)cc1S(=O)(=O)Nc1c(C)cccc1C` [Compound 1120] the same measures were 20 to 100 µM and 160 to 199%.
With `COc1ccc(NC(=O)c2ccc(Cn3cc(Cl)cn3)cc2)cc1S(=O)(=O)Nc1c(C)cccc1C` [Compound 1237], the EC50 was below 10 µM and the Emax lay in the range of 160 to 199%.
On the same counts, the results for `COc1ccc(NC(=O)c2nnc(-c3ccccc3)[nH]2)cc1S(=O)(=O)Nc1ccc(Cl)cc1` [Compound 586, N-(3-(N-(4-chlorophenyl)sulfamoyl)-4-methoxyphenyl)-5-phenyl-4H-1,2,4-triazole-3-carboxamide] are 10 to 20 µM and 160 to 199%.
On the same counts, the results for `COc1ccc(NC(=O)c2nccs2)cc1S(=O)(=O)Nc1c(C)cccc1C` [Compound 1171] are 20 to 100 µM and 160 to 199%.
In the case of `COc1ccc(NC(=O)c2cc(C#N)ccc2Br)cc1S(=O)(=O)Nc1c(C)cccc1C` [Compound 1141], the EC50 lay within 20 to 100 µM and the Emax fell in the range of 160 to 199%.
On the same counts, the results for `CCN1CCN(c2ccc(C(=O)Nc3ccc(OC)c(S(=O)(=O)Nc4c(C)cccc4C)c3)cc2)CC1` [Compound 1283] are 20 to 100 µM and 123 to 159%.
On the same counts, the results for `COc1ccc(NC(=O)c2cc(F)ccc2OC(F)(F)F)cc1S(=O)(=O)Nc1c(C)cccc1C` [Compound 1092] are below 10 µM and 160 to 199%.
